From US20120225061A1, “TETRASUBSTITUTED CYCLOHEXYL COMPOUNDS AS KINASE INHIBITORS” (priority 2011, published 2012)

Tests used:
[1] = tested on: KMS11 (human myeloma cell line); test: Cell proliferation assay (CellTiter-Glo) in KMS11 cells; assay type: cell-based; details: KMS-11, 72 h, Table 5, 3 days, read-out: KMS11-luc EC50
Method: KMS11 (human myeloma cell line), were cultured in IMDM supplemented with 10% FBS, sodium pyruvate and antibiotics. Cells were plated in the same medium at a density of 2000 cells per well into 96 well tissue culture plates, with outside wells vacant, on the day of assay.
Test compounds supplied in DMSO were diluted into DMSO at 500 times the desired final concentrations before dilution into culture media to 2 times final concentrations.
After 3 days plates were equilibrated to room temperature and equal volume of CellTiter-Glow Reagent (Promega) was added to the culture wells. The plates were agitated briefly and luminescent signal was measured with luminometer.

Pim1 kinase = Pim1 kinase (Homo sapiens, UniProt P11309); test: Pim1 AlphaScreen assay (high ATP)
Method: (§1) The activity of Pim 1, Pim 2, & Pim 3 is measured using a homogeneous bead based system quantifying the amount of phosphorylated peptide substrate resulting from kinase-catalyzed phosphoryl transfer to a peptide substrate. Compounds to be tested are dissolved in 100% DMSO and directly distributed to a white 384-well plate at 0.25 μl per well. […] This is followed by the addition of 5 μl/well of Pim 1, Pim 2 or Pim 3 kinase in assay buffer (concentrations described below). Final assay concentrations (described below) are in 2.5% DMSO. The reactions are performed for ˜2 hours, then stopped by the addition of 10 μl of 0.75 μg/ml anti-phospho Ser/Thr antibody (Cell Signaling), 10 μg/ml Protein A AlphaScreen beads (Perkin Elmer), and 10 μg/ml streptavidin coated AlphaScreen beads in stop/detection buffer (50 mM EDTA, 95 mM Tris, pH=7.5, 0.01% Tween-20). The stopped reactions are incubated overnight in the dark. The phosphorylated peptide is detected via an oxygen anion initiated chemiluminescence/fluorescence cascade using the Envision plate reader (Perkin Elmer).

Pim2 kinase = Pim2 kinase (Homo sapiens, UniProt Q9P1W9); test: Pim2 AlphaScreen assay (high ATP)
Method: as §1

Pim3 kinase = Pim3 kinase (Homo sapiens, UniProt Q86V86); test: Pim3 AlphaScreen assay (high ATP)
Method: as §1

Pim2 kinase, sequence (Q9P1W9 whole entry): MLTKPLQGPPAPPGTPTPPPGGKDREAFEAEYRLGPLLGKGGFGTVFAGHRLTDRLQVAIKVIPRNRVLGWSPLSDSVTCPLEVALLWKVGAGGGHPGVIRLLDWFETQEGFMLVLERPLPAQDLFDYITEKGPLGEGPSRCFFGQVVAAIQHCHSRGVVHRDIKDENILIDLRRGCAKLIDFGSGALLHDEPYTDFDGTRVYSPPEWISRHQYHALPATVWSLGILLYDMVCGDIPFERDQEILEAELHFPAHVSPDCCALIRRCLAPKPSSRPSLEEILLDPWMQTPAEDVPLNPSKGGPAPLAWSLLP
Pim1 kinase, sequence (P11309 whole entry): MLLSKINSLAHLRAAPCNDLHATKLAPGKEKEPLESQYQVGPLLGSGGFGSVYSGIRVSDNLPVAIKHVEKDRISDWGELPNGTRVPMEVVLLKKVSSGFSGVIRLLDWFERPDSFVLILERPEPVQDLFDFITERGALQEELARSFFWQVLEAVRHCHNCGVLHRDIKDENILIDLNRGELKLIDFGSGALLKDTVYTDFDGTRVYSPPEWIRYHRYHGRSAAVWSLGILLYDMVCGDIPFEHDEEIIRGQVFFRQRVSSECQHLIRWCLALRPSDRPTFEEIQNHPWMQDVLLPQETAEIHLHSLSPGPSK

EC50 [1]	IC50 (Pim1 kinase)	IC50 (Pim2 kinase)	IC50 (Pim3 kinase)	SMILES
4700 nM	8.54 nM	1010 nM	1620 nM	C[C@H]1C[C@@H](c2ccncc2NC(=O)c2ccc(F)c(-c3c(F)cc(S(C)(=O)=O)cc3F)n2)C[C@@H](O)[C@]1(C)O [Example 9, 6-(2,6-difluoro-4-(methylsulfonyl)phenyl)-N-(4-((1R,3R,4R,5S)-3,4-dihydroxy-4,5-dimethylcyclohexyl)pyridin-3-yl)-5-fluoropicolinamide]
> 10000 nM	14.6 nM	7110 nM	4150 nM	C[C@@H]1C[C@H](c2ccncc2NC(=O)c2ccc(F)c(-c3c(F)cc(S(C)(=O)=O)cc3F)n2)C[C@H](O)[C@@]1(C)O [Example 10, 6-(2,6-difluoro-4-(methylsulfonyl)phenyl)-N-(4-((1S,3S,4S,5R)-3,4-dihydroxy-4,5-dimethylcyclohexyl)pyridin-3-yl)-5-fluoropicolinamide]
382 nM	0.85 nM	201 nM	39.5 nM	COc1cc(F)c(-c2nc(C(=O)Nc3cnccc3[C@H]3C[C@@H](O)[C@](C)(O)[C@@H](C)C3)ccc2F)c(F)c1 [Example 22, 6-(2,6-difluoro-4-methoxyphenyl)-N-(4-((1R,3R,4R,5S)-3,4-dihydroxy-4,5-dimethylcyclohexyl)pyridin-3-yl)-5-fluoropicolinamide]

The remaining lines, values behind:

SMILES	EC50 [1]	IC50 (Pim1 kinase)	IC50 (Pim2 kinase)	IC50 (Pim3 kinase)
COCCOc1cc(F)c(-c2nc(C(=O)Nc3cnccc3[C@H]3C[C@@H](N)[C@](C)(O)[C@@H](C)C3)ccc2F)c(F)c1 [Example 7, N-(4-((1R,3R,4R,5S)-3-amino-4-hydroxy-4,5-dimethylcyclohexyl)pyridin-3-yl)-6-(2,6-difluoro-4-(2-methoxyethoxy)phenyl)-5-fluoropicolinamide]	57 nM	0.08 nM	6.31 nM	2.09 nM
CSc1cc(F)c(-c2nc(C(=O)Nc3cnccc3[C@H]3C[C@@H](N)[C@](C)(O)[C@@H](C)C3)ccc2F)c(F)c1 [Example 8, N-(4-((1R,3R,4R,5S)-3-amino-4-hydroxy-4,5-dimethylcyclohexyl)pyridin-3-yl)-6-(2,6-difluoro-4-(methylthio)phenyl)-5-fluoropicolinamide]	234 nM	0.08 nM	6.98 nM	2.04 nM
Cc1cc(F)c(-c2nc(C(=O)Nc3cnccc3[C@H]3C[C@@H](N)[C@](C)(O)[C@@H](C)C3)ccc2F)c(F)c1 [Example 13, N-(4-((1R,3R,4R,5S)-3-amino-4-hydroxy-4,5-dimethylcyclohexyl)pyridin-3-yl)-6-(2,6-difluoro-4-methylphenyl)-5-fluoropicolinamide]	42 nM	0.07 nM	4.33 nM	1.16 nM
Cc1cc(F)c(-c2nc(C(=O)Nc3cnccc3[C@H]3C[C@@H](C)[C@](C)(O)[C@@H](N)C3)ccc2F)c(F)c1 [Example 14, N-(4-((1S,3S,4S,5R)-3-amino-4-hydroxy-4,5-dimethyl-cyclohexyl)pyridin-3-yl)-6-(2,6-difluoro-4-methylphenyl)-5-fluoropicolinamide]	5040 nM	13.7 nM	776 nM	231 nM
C[C@H]1C[C@@H](c2ccncc2NC(=O)c2nc(-c3c(F)cccc3F)ccc2N)C[C@@H](O)[C@@]1(O)CF [Example 18, 3-amino-6-(2,6-difluorophenyl)-N-(4-((1R,3R,4R,5S)-4-(fluoromethyl)-3,4-dihydroxy-5-methylcyclohexyl)pyridin-3-yl) picolinamide]	714 nM	0.67 nM	47 nM	10.2 nM
CC(C)Oc1cc(F)c(-c2nc(C(=O)Nc3cnccc3[C@H]3C[C@@H](N)[C@](C)(O)[C@@H](C)C3)ccc2F)c(F)c1 [Example 64, N-(4-((1R,3R,4R,5S)-3-amino-4-hydroxy-4,5-dimethylcyclohexyl)pyridin-3-yl)-6-(2,6-difluoro-4-isopropoxyphenyl)-5-fluoropicolinamide]	165 nM	0.02 nM	1.54 nM	0.54 nM
